54 molecules from patent US5532234A, “Use of 1-[4-[4-aryl (or heteroaryl)-1-piperazinyl]-butyl)-1H-azole derivatives for the preparation of medicaments intended for the treatment of disorders of gastric secretion” (Laboratories Del Dr. Esteve, S.A., priority 1993, dated 1996) can be followed below.

Where two headings read alike, the source gives them in different places.

The test has as its system gastric acid secretion. Briefly: Inhibitory activity on gastric acid secretion, Shay Method (pylorus-ligated rats). Type of test: in vivo, male Wistar rats. Particulars: Rattus norvegicus, 2 h; for ED50: read-out: ED50 (inhibition of gastric acid secretion); for inhibition in vivo at 40 mg/kg: intraduodenal, read-out: Percentage of inhibition of gastric acid secretion. From the text:
Inhibitory activity on gastric acid secretion, Shay Method [Shay, H., Komarov, S. A., Fels, S. S., Merange, D., Grvenstein, M., Siplet, H.: Gastroenterology, 5, 43 (1945)--Visscher, F. E., Seay, P. H., Taxelaar, A. P., Veldhamp, W., Vander Brook, M. J.: J. Pharmac. Exp. Ther., 110, 188 (1954)--"Animal Experiments in Pharmacological Analysis", F. R. Domer; C. C. Thomas Pub, Springfield, Ill., USA, 1970, p. 140].
In this test, male Wistar rats weighing 200 to 250 grams are used, which rats are denied food from the day prior to that of the test, with free access to water. Batches which each contain at least 4 animals are used.
The rats are anesthetized with ethyl ether, a laparotomy is carried out on them and their pylori are ligatured, and then the abdominal incision is stitched up. Administration of the products, with the vehicle for the control batch, is carried out intraduodenally (i.d.) before stitching up the abdominal incision. The dose administered for the first test is 40 mg/kg and the 50% effective dose (ED50) by the i.d. route is also determined in a second test. The vehicle used is 5% w/v gum arabic in doubly-distilled water.
Two hours after ligaturing the pylorus, the rats are sacrificed by prolonged anesthesia with ethyl ether and the volume of the gastric juice is measured and the total acidity is determined using a pH meter equipped with an automatic burette. The percentage of inhibition of the gastric acid secretion is determined, with respect to the control batch, for each product and for each dose tested.
The results obtained for some of the derivatives of the present invention are summarized, as non-limiting examples, in Table II.

Where [1] appears, read: i.d. route, rats, Shay Method, two hours after pylorus ligature.
[2] abbreviates: Dose = 40 mg/kg, i.d. route, rats, Shay Method, two hours after pylorus ligature.

Usually ED50 stands for the dose at which the effect has come halfway, by size or by number of responders.

Turning to `CN/C(=N/CCSCc1nc[nH]c1C)NC#N` [Cimetidine, reference compound], the 50% effective dose (ED50) turned out to be 11.5 mg/kg and the inhibition in vivo at 40 mg/kg amounted to 69%.
As to `c1cnc(N2CCN(CCCCn3cccc3)CC2)nc1` [Example 1], the ED50 under setting [1] came out at 12 mg/kg. Besides, the inhibition in vivo at 40 mg/kg under setting [2] was determined as 90%.
For `c1cnc(N2CCN(CCCCn3c4ccccc4c4ccccc43)CC2)nc1` [Example 2], in that order: 46 mg/kg and 44%.
The like results for `c1cnc(N2CCN(CCCCn3ccc4ccccc43)CC2)nc1` [Example 3] were, in that order, 30 mg/kg and 63%.
For the molecule `O=C(O)c1cnn(CCCCN2CCN(c3ncccn3)CC2)c1` [Example 6], the ED50 under setting [1] amounted to 52 mg/kg. Moreover, the inhibition in vivo at 40 mg/kg under setting [2] worked out at 41%.
As for `Cc1cc(C(F)(F)F)n(CCCCN2CCN(c3ncccn3)CC2)n1` [Example 7], under setting [1], the ED50 came to 47 mg/kg. For the same molecule, the inhibition in vivo at 40 mg/kg under setting [2] amounted to 40%.
The like results for `c1ccc(-c2nc(-c3ccccc3)n(CCCCN3CCN(c4ncccn4)CC3)c2-c2ccccc2)cc1` [Example 9] were, in that order, 45 mg/kg and 35%.
`Cc1nc(-c2ccccc2)c(-c2ccccc2)n1CCCCN1CCN(c2ncccn2)CC1` [Example 10]: the 50% effective dose (ED50) under setting [1] worked out at 19 mg/kg. Moreover, the inhibition in vivo at 40 mg/kg under setting [2] was found to be 81%.
For `Cc1nc(Cl)c(Cl)n1CCCCN1CCN(c2ncccn2)CC1` [Example 11], in that order: 14 mg/kg and 81%.
As for `CCc1nccn1CCCCN1CCN(c2ncccn2)CC1` [Example 12], the ED50 under setting [1] was determined as 52 mg/kg. Also, the inhibition in vivo at 40 mg/kg under setting [2] came to 37%.
`c1ccc(-c2nccn2CCCCN2CCN(c3ncccn3)CC2)cc1` [Example 13]: the ED50 under setting [1] stood at 45 mg/kg. Besides, the inhibition in vivo at 40 mg/kg under setting [2] is 44%.
The like results for `c1ccc(-c2cn(CCCCN3CCN(c4ncccn4)CC3)cn2)cc1` [Example 15] were, in that order, 36 mg/kg and 53%.
For the molecule `c1cnc(N2CCN(CCCCn3cnc4ccccc43)CC2)nc1` [Example 16], under setting [1], the ED50 was 25 mg/kg. For the same molecule, the inhibition in vivo at 40 mg/kg under setting [2] came to 71%.
For `c1cnc(N2CCN(CCCCn3cnc4cccnc43)CC2)nc1` [Example 17], in that order: 19 mg/kg and 63%.
For the molecule `c1cnc(N2CCN(CCCCn3nnc4ccccc43)CC2)nc1` [Example 19], under setting [1], the median effective dose (ED50) was found to be 42 mg/kg. Moreover, the inhibition in vivo at 40 mg/kg under setting [2] is 49%.
For `c1cnc(N2CCN(CCCCn3cncn3)CC2)nc1` [Example 21], in that order: 4.4 mg/kg and 71%.
For `c1cnc(N2CCN(CCCCn3nc4ccccc4n3)CC2)nc1` [Example 22], in that order: 34 mg/kg and 55%.
For `Cc1cc2ncn(CCCCN3CCN(c4ncccn4)CC3)c2cc1C` [Example 24], in that order: 36 mg/kg and 59%.
`c1cnc(N2CCN(CCCCn3cccn3)CC2)nc1` [Example 25]: under setting [1], the 50% effective dose (ED50) is 21 mg/kg. Besides, the inhibition in vivo at 40 mg/kg under setting [2] stood at 85%.
For `Cc1nn(CCCCN2CCN(c3ncccn3)CC2)c(C)c1[N+](=O)[O-]` [Example 27], in that order: 17 mg/kg and 63%.
For `c1cnc(N2CCN(CCCCn3ncc4ccccc43)CC2)nc1` [Example 29], in that order: 21 mg/kg and 81%.
For `O=[N+]([O-])c1cnn(CCCCN2CCN(c3ncccn3)CC2)c1` [Example 31], in that order: 2.7 mg/kg and 90%.
With `Clc1cnn(CCCCN2CCN(c3ncccn3)CC2)c1` [Example 32], the median effective dose (ED50) under setting [1] was found to be 15 mg/kg. Moreover, the inhibition in vivo at 40 mg/kg under setting [2] is 78%.
Consider `Cc1cc(-c2ccccc2)n(CCCCN2CCN(c3ncccn3)CC2)n1` [Example 34], for which the median effective dose (ED50) under setting [1] worked out at 50 mg/kg. For the same molecule, the inhibition in vivo at 40 mg/kg under setting [2] was determined as 45%.
For `Brc1cnn(CCCCN2CCN(c3ncccn3)CC2)c1` [Example 35], the ED50 under setting [1] came out at 11 mg/kg. Also, the inhibition in vivo at 40 mg/kg under setting [2] is 64%.
On to `N#Cc1cnn(CCCCN2CCN(c3ncccn3)CC2)c1` [Example 36], for which the 50% effective dose (ED50) under setting [1] turned out to be 2.1 mg/kg. The inhibition in vivo at 40 mg/kg under setting [2] was determined as 78%.
With `Fc1cnn(CCCCN2CCN(c3ncccn3)CC2)c1` [Example 37], under setting [1], the ED50 came out at 17 mg/kg. For the same molecule, the inhibition in vivo at 40 mg/kg under setting [2] stood at 79%.
For `COc1ccc(-c2cnn(CCCCN3CCN(c4ncccn4)CC3)c2)cc1` [Example 44], under setting [1], the 50% effective dose (ED50) is 31 mg/kg. Further, the inhibition in vivo at 40 mg/kg under setting [2] is 81%.
For `c1ccc(-c2ccc(-c3cnn(CCCCN4CCN(c5ncccn5)CC4)c3)cc2)cc1` [Example 45], in that order: 12 mg/kg and 74%.
Consider `c1cnc(N2CCN(CCCCn3cc(-n4cccc4)cn3)CC2)nc1` [Example 46], for which the 50% effective dose (ED50) under setting [1] was 9.5 mg/kg. Besides, under setting [2], the inhibition in vivo at 40 mg/kg came to 92%.
For `c1ccc(-c2cnn(CCCCN3CCN(c4ncccn4)CC3)c2)cc1` [Example 47], in that order: 11 mg/kg and 88%.
The like results for `CCCS(=O)(=O)Nc1cnn(CCCCN2CCN(c3ncccn3)CC2)c1` [Example 52] were, in that order, 40 mg/kg and 54%.
With `CCS(=O)(=O)Nc1cnn(CCCCN2CCN(c3ncccn3)CC2)c1` [Example 53], the median effective dose (ED50) under setting [1] was found to be 6.4 mg/kg. The inhibition in vivo at 40 mg/kg under setting [2] turned out to be 90%.
With `Clc1ncn(CCCCN2CCN(c3ncccn3)CC2)c1Cl` [Example 59], the median effective dose (ED50) under setting [1] amounted to 20 mg/kg. Under setting [2], the inhibition in vivo at 40 mg/kg came to 75%.
For `COc1ccc(N2CCN(CCCCn3cc(Cl)cn3)CC2)cc1` [Example 60], in that order: 26 mg/kg and 63%.
Turning to `COc1ccc(N2CCN(CCCCn3c(C)nc(Cl)c3Cl)CC2)cc1` [Example 61], the ED50 under setting [1] amounted to 13 mg/kg. Moreover, the inhibition in vivo at 40 mg/kg under setting [2] amounted to 86%.
Turning to `COc1ccccc1N1CCN(CCCCn2cc(Cl)cn2)CC1` [Example 62], the median effective dose (ED50) under setting [1] was found to be 13 mg/kg. The inhibition in vivo at 40 mg/kg under setting [2] is 81%.
The like results for `COc1ccccc1N1CCN(CCCCn2c(C)nc(Cl)c2Cl)CC1` [Example 63] were, in that order, 10 mg/kg and 89%.
The like results for `COc1cccc(N2CCN(CCCCn3cc(Cl)cn3)CC2)c1` [Example 64] were, in that order, 20 mg/kg and 68%.
With `COc1ccccc1N1CCN(CCCCn2cccc2)CC1` [Example 66], under setting [1], the 50% effective dose (ED50) was 27 mg/kg. For the same molecule, the inhibition in vivo at 40 mg/kg under setting [2] was 65%.
For `c1ccc(N2CCN(CCCCn3cccc3)CC2)cc1` [Example 67], in that order: 8.7 mg/kg and 90%.
For `Clc1cnn(CCCCN2CCN(c3ccccc3)CC2)c1` [Example 68], in that order: 13 mg/kg and 94%.
The like results for `Cc1nc(Cl)c(Cl)n1CCCCN1CCN(c2ccccc2)CC1` [Example 69] were, in that order, 7.6 mg/kg and 71%.
For the molecule `Cc1nc(Cl)c(Cl)n1CCCCN1CCN(c2ccccc2Cl)CC1` [Example 71], the 50% effective dose (ED50) under setting [1] turned out to be 9.1 mg/kg. For the same molecule, the inhibition in vivo at 40 mg/kg under setting [2] stood at 73%.
With `Clc1cccc(N2CCN(CCCCn3cc(Cl)cn3)CC2)c1` [Example 72], the ED50 under setting [1] was 21 mg/kg. Further, under setting [2], the inhibition in vivo at 40 mg/kg is 88%.
As for `Cc1nc(Cl)c(Cl)n1CCCCN1CCN(c2ccccc2C#N)CC1` [Example 73], the median effective dose (ED50) under setting [1] worked out at 4.2 mg/kg. Further, under setting [2], the inhibition in vivo at 40 mg/kg was 90%.
For `Cc1nc(Cl)c(Cl)n1CCCCN1CCN(c2ccccc2F)CC1` [Example 74], in that order: 5 mg/kg and 94%.
The like results for `N#Cc1ccccc1N1CCN(CCCCn2cc(Cl)cn2)CC1` [Example 75] were, in that order, 8.4 mg/kg and 94%.
Consider `Cc1nc(Cl)c(Cl)n1CCCCN1CCN(c2cccc(C(F)(F)F)c2)CC1` [Example 76], for which the ED50 under setting [1] came to 2.1 mg/kg. The inhibition in vivo at 40 mg/kg under setting [2] is 96%.
The like results for `FC(F)(F)c1cccc(N2CCN(CCCCn3cc(Cl)cn3)CC2)c1` [Example 77] were, in that order, 9.2 mg/kg and 82%.
For `Fc1ccccc1N1CCN(CCCCn2cc(Cl)cn2)CC1` [Example 78], in that order: 10 mg/kg and 87%.
On to `Clc1cnn(CCCCN2CCN(c3nsc4ccccc34)CC2)c1` [Example 79], for which the median effective dose (ED50) under setting [1] was determined as 20 mg/kg. Moreover, the inhibition in vivo at 40 mg/kg under setting [2] is 82%.
As for `Cc1nc(Cl)c(Cl)n1CCCCN1CCN(c2nsc3ccccc23)CC1` [Example 80], the ED50 under setting [1] is 7.1 mg/kg. The inhibition in vivo at 40 mg/kg under setting [2] was 88%.
For `c1ccc2c(N3CCN(CCCCn4cncn4)CC3)nsc2c1` [Example 81], the ED50 under setting [1] was 5.2 mg/kg. For the same molecule, the inhibition in vivo at 40 mg/kg under setting [2] is 82%.
